From the supplement of paper PMC10307832

Assays:
Experiment in all cases: relative viability (nuclei count vs DMSO), 5 days (fraction); higher = more cells survive
[1] = compound: CN1C=C(C2=CC=CC=C21)/C=C\3/C4=C(C=CC=N4)NC3=O + CC1(C)CCC(c2ccc(Cl)cc2)=C(CN2CCN(c3ccc(C(=O)NS(=O)(=O)c4ccc(N[C@H](CCN5CCOCC5)CSc5ccccc5)c(S(=O)(=O)C(F)(F)F)c4)cc3)CC2)C1 [Navitoclax] (partner 0.5 µM)
Outline: (§1)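 Lung cancer cell lines were pin-tool dosed in 1536-well plates on the day after seeding, with either a lone drug or a fixed anchor-drug dose plus five library-drug doses (not always all listed) in √10 steps. Nuclei were counted on 4× images after 5 days. Relative viability is the ratio of treated-well to vehicle-well nuclei counts, with each value a median of duplicate plates.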

[2] = compound: CN1C=C(C2=CC=CC=C21)/C=C\3/C4=C(C=CC=N4)NC3=O + C[C@]1(O)C[C@@H](c2nc(-c3ccc4ccc(-c5ccccc5)nc4c3)c3c(N)nccn32)C1 [Linsitinib] (partner 1 µM)
Outline: as §1

[3] = compound: CN1C=C(C2=CC=CC=C21)/C=C\3/C4=C(C=CC=N4)NC3=O + Cc1nc(Nc2ncc(C(=O)Nc3c(C)cccc3Cl)s2)cc(N2CCN(CCO)CC2)n1 [Dasatinib] (partner 0.075 µM)
Outline: as §1

[4] = compound: CN1C=C(C2=CC=CC=C21)/C=C\3/C4=C(C=CC=N4)NC3=O + N=C(N)NC(=N)NCCc1ccccc1 [Phenformin] (partner 250 µM)
Outline: as §1

Row | Cell Line | relative viability ([1]; first compound 0.02 µM) | relative viability ([1]; first compound 0.06325 µM) | relative viability ([1]; first compound 0.2 µM) | relative viability ([1]; first compound 0.6325 µM) | relative viability ([1]; first compound 2 µM) | relative viability ([2]; first compound 0.02 µM) | relative viability ([2]; first compound 0.06325 µM) | relative viability ([2]; first compound 0.2 µM) | relative viability ([2]; first compound 0.6325 µM) | relative viability ([2]; first compound 2 µM) | relative viability ([3]; first compound 0.02 µM) | relative viability ([3]; first compound 0.06325 µM) | relative viability ([3]; first compound 0.2 µM) | relative viability ([3]; first compound 0.6325 µM) | relative viability ([3]; first compound 2 µM) | relative viability ([4]; first compound 0.02 µM) | relative viability ([4]; first compound 0.06325 µM) | relative viability ([4]; first compound 0.2 µM) | relative viability ([4]; first compound 0.6325 µM) | relative viability ([4]; first compound 2 µM)
1 | NCI-H1355 | 0.868 | 0.921 | 0.793 | 0.632 | 0.673 | 0.702 | 0.748 | 0.73 | 0.56 | 0.632 | 0.671 | 0.586 | 0.571 | 0.399 | 0.502 | 0.439 | 0.388 | 0.398 | 0.358 | 0.434
2 | NCI-H727 | 0.396 | 0.349 | 0.385 | 0.372 | 0.4 | 0.285 | 0.204 | 0.282 | 0.323 | 0.263 | 0.332 | 0.372 | 0.365 | 0.332 | 1.12 | 0.414 | 0.448 | 0.442 | 0.586 | 0.528
3 | NCI-H1975 | 0.955 | 1.05 | 1.07 | 0.937 | 0.94 | 0.921 | 1.04 | 0.982 | 0.694 | 0.661 | 0.382 | 0.38 | 0.333 | 0.279 | 0.239 | 0.392 | 0.378 | 0.318 | 0.389 | 0.402
4 | NCI-H460 | 1.27 | 1.21 | 1.39 |  | 1.43 | 0.8 | 0.838 | 0.789 |  | 0.906 | 0.648 | 0.448 | 0.388 | 0.44 | 0.459 | 0.553 | 0.526 | 0.52 | 0.56 | 0.571
5 | EPLC-272H | 1.37 | 0.988 |  | 1.27 | 0.944 | 1.54 | 1.12 |  | 1.31 | 1.23 | 0.344 | 0.41 | 0.237 |  | 0.355 | 0.287 | 0.244 | 0.242 |  | 0.3
6 | SK-LU-1 | 0.482 | 0.812 | 0.802 | 1 | 1.23 | 0.838 | 0.894 | 1.15 | 1.09 | 1.14 | 0.118 | 0.129 | 0.175 | 0.191 | 0.154 | 0.409 | 0.41 | 0.444 | 0.524 | 0.646
7 | NCI-H322M | 1.31 | 1.3 | 1.12 | 1.12 | 1.29 | 1.01 | 0.993 | 0.874 | 0.819 | 0.862 | 0.239 | 0.254 | 0.236 | 0.248 | 0.264 | 0.689 | 0.769 | 0.642 | 0.838 | 0.777
8 | NCI-H2405 | 0.891 | 0.803 | 0.65 | 1.1 | 0.732 | 0.871 | 0.912 | 0.783 | 0.954 | 0.816 | 0.253 | 0.22 | 0.205 | 0.196 | 0.241 | 0.416 | 0.381 | 0.366 | 0.328 | 0.4
9 | NCI-H1666 | 1.19 | 0.883 | 0.879 | 0.761 | 0.542 | 0.85 | 0.712 | 0.79 | 0.748 | 0.665 | 0.892 | 0.822 | 0.79 | 0.758 | 0.81 | 0.57 | 0.527 | 0.481 | 0.577 | 0.494
10 | H3255 | 0.547 | 0.484 | 0.422 | 0.439 | 0.425 | 1.06 | 0.989 | 0.945 | 0.816 | 1.11 | 0.438 | 0.349 | 0.323 | 0.324 | 0.322 | 0.384 | 0.36 | 0.341 | 0.327 | 0.366
11 | NCI-H2347 | 0.826 | 0.859 | 0.743 | 0.764 | 0.834 | 0.998 | 0.963 | 0.944 | 0.986 | 0.959 |  | 0.296 | 0.222 | 0.302 | 0.938 |  | 0.374 | 0.297 | 0.318 | 0.46
12 | LK-2 |  | 0.683 | 0.638 | 0.726 | 1.04 | 0.365 | 0.333 |  | 0.474 | 0.504 |  |  |  | 0.266 | 0.256 |  |  |  | 0.56 | 0.546
13 | HCC-15 | 0.763 | 0.689 | 0.736 | 0.559 | 0.665 | 0.907 | 0.841 | 0.933 | 0.853 | 0.976 | 0.53 | 0.577 | 0.565 | 0.544 | 0.496 | 0.422 | 0.462 | 0.486 | 0.448 | 0.463
14 | SW 1573 | 1.18 | 0.861 | 1.02 | 1.12 | 0.893 | 0.894 | 0.793 | 0.914 | 0.787 | 0.965 | 0.348 | 0.537 | 0.488 | 0.633 | 0.516 | 0.394 | 0.344 | 0.436 | 0.352 | 0.441
15 | NCI-H838 | 0.941 | 1.04 | 1.05 | 1.04 | 1.1 | 0.662 | 0.866 | 0.944 | 0.904 | 0.986 | 0.146 | 0.277 | 0.242 | 0.27 | 0.261 | 0.5 | 0.533 | 0.519 | 0.569 | 0.535
